Measurements: patent US20080119412A1, “Polypeptides for Modulating Binding of Trp Channel Proteins and Trp- Associated Proteins” (NoNO Inc., priority 2003, published 2008)
pEC50: −log10 of the molar value. Residues, ends and D or L forms follow the SMILES beside them. No end group written: not given here. *: point of attachment. Biotin = O=C1N[C@H]2[C@H](CS[C@H]2CCCCC(=O)*)N1

Key:
[1] = target: T1, TIP1 d1 (Homo sapiens, UniProt O14907); assay: G3 assay titration, GST-PDZ fusion / biotinylated peptide; assay type: binding
T1 construct: made in house; host or cells: E. coli (DH5alpha, BL21 or JM109)
T1 sequence (O14907 14-116): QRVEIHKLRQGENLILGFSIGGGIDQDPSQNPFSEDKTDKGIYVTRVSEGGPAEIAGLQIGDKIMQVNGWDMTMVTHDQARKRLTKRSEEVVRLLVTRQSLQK
Method: The G3 assay is identical to the G0 assay with the following exceptions. The peptides are typically present at 0.1 μM rather than 20 μM. The peptides are also pre-incubated with the HRP-streptavidin prior to adding to the assay plate. In the G0 assay, free peptide is incubated with the PDZ proteins prior to the addition of the HRP-streptavidin. Thus, for the G0 assay one can lose signal if the bound peptide dissociates from the PDZ protein prior to the addition of the HRP-streptavidin. In the G3 modified assay the HRP-streptavidin/peptide complex is added to the plate in one step, thus increasing the likelihood that all the bound peptide will be bound to HRP-streptavidin. The G3 modified assay increases the chance of observing weak interactions.
This example describes assays to identify binding between TRPM7 and PDZ domains. GST-PDZ fusions are produced that each contain an entire PDZ domain (or multiple PDZ domains), the collection encompassing approximately 90% of all PDZ domains identified in the human genome. (See Table 5 and Section V (PDZ Proteins and PL Protein Interactions Disclosure). Biotinylated peptide corresponding to 11 residues of Tat coupled to the C-terminal 9 amino acids of TRPM7 ([…]; SEQ ID NO:258) is synthesized and purified by HPLC.
• Nunc MaxiSorp 96 well Immuno-plate, Nunc • PBS pH 7.4 (phosphate buffered saline, 8 g NaCl, 0.29 g KCl, 1.44 g Na2HPO4, 0.24 g KH2PO4, add H2O to 1 liter and pH 7.4; 0.2 μm filter) • Assay Buffer: 2% BSA in PBS (20 g of bovine serum albumin per liter PBS, fraction V, ICN Biomedicals, cat#IC15142983 • Goat anti-GST polyclonal Ab, stock 5 mg/ml, stored at 4° C., Amersham Pharmacia cat#27-4577-01 • Dilute 1:1000 in PBS, final concentration 5 μg/ml. • HRP-Streptavidin, 2.5 mg/2 ml stock stored at 4° C., Zymed cat#43-4323, dilute 1:2000 into Assay buffer, final concentration of […] • Wash Buffer, PBS • Biotinylated peptides (HPLC purified, stock solution stored in −20° C. freezer) • GST-PRISM proteins (stock stored at −80° C., after 1st thaw store in −10° C. freezer) • TMB (3,3′,5,5′, teramethylbensidine), tablets, Sigma cat.#T5525 • Per plate, dissolve 1 tablet in 1 ml DMSO, add 9 ml Citrate/Phosphate buffer pH 5.4 and 2 μL H2O2 • 0.1 M H2SO4, Sigma cat.#S1526 • 12-w multichannel pipettor & tips • 50 ml reagent reservoirs, Costar#4870 • 50, 15 ml polypropylene conical tubes • Costar Transtar 96 Costar #7605 • Transtar 96 Cartridge Costar #7610 • Molecular Devices microplate reader (450 & 650 nm filters) with SoftMax Pro software *When using reagents stored at or 4° C. or −20° C., remove & keep on ice
• 1. Coat plate with 100 μl of 5 μg/ml anti-GST, overnight at 4° C. • 2. Dump contents of plate & out tap dry on paper towels • 3. Block with 200 μl Assay Buffer for 2 hrs at room temperature • 4. Prepare proteins at 5 μg/ml in Assay Buffer • 5. Wash 3× with cold PBS (4° C.), avoiding letting the plates dry out • 6. Add proteins at 50 μl per well, incubate 1 to 2 hrs at 4° C. • 7. Prepare peptides to desired concentration in Assay Buffer • 8. Wash 3× with cold PBS (4° C.), avoiding letting the plates dry out • 9. Add HRP-Streptavidin/peptide complex [prepared by incubating for 20 minutes at room temperature HRP-Streptavidin (1:2000) with the desired biotin-peptide concentration for 20 minutes at room temperature] at 50 μl per well on ice • 10. Place at room temperature for exactly 30 minutes • 11. Promptly wash 5× with PBS at room temperature • 12. Add 100 μl/well TMB substrate (write time on plate) • 13. Incubate in dark at room temperature for a maximum of 30 minutes • 14. Read plate at 25 minutes (650 nm), optional • 15. Stop reaction with 100 μl of 0.18 M H2SO4, 30 minutes after adding TMB • Take last reading at 450 nm soon after stopping reaction
The G3 assay was performed on a subset of the PDZ domains as in Example II except that the concentration of peptide was 0.002 μM, […], 0.1 μM, 0.2 μM, 1 μM, and 2 μM. Data was fitted to the equation: […]

[2] = test system: neurons; assay: Oxygen-glucose deprivation (OGD) of neurons: ROS production, calcium uptake, cell death; assay type: cell-based; conditions: prolonged OGD, FIG. 7
Method: The fraction of dead cells was determining by dividing the number of neurons expressing GFP which became stained with propidium iodide 20 h after OGD by the number of neurons expressing GFP at the beginning of the experiment. Data for each culture was obtained from counting cells in 3 high power microscope fields per experiment.

[3] = target: TRPM7 (Homo sapiens, UniProt Q96QT4); conditions: intracellular free; cited from earlier work
[4] = test system: neurons; assay: Neuronal survival 20 h after NMDA challenge (FIG. 14); assay type: cell-based; conditions: 20 h after 1 h NMDA challenge; peptide applied immediately after the NMDA challenge
Method: The sequence of Tat-9cTRPM7 is: [[…] or [[…]-[…]], whereby the first 11 residues correspond to the cell membrane transduction domain of the human immunodeficiency virus type 1 (HIV-1) Tat protein and the last 9 residues correspond to the last 9 amino acids of the C-terminus of human TRPM7 (accession Q96QT4). […] (A) Neuronal survival at 20 h in the indicated concentrations of Tat-9cTRPM7 in the absence of excitotoxic challenge. (B) Neuronal survival 20 h after challenging the cultures for 1 h with the indicated concentration of NMDA. Tat-9cTRPM7 was applied immediately after the NMDA challenge.
The sequence of Tat-9cTRPM7 is: [[…]-[…]; SEQ ID NO:258], whereby the first 11 residues correspond to the cell-membrane transduction domain of the human immunodeficiency virus type 1 (HIV-1) Tat protein and the last 9 residues correspond to the last 9 amino acids of the C-terminus of human TRPM7 (accession Q96QT4). (A) Neuronal survival at 20 h in the indicated concentrations of Tat-9cTRPM7 in the absence of excitotoxic challenge. (B) Neuronal survival 20 h after challenging the cultures for 1 h with the indicated concentration of NMDA. Tat-9cTRPM7 was applied immediately after the NMDA challenge.

Sequence of TRPM7 (Q96QT4 whole entry): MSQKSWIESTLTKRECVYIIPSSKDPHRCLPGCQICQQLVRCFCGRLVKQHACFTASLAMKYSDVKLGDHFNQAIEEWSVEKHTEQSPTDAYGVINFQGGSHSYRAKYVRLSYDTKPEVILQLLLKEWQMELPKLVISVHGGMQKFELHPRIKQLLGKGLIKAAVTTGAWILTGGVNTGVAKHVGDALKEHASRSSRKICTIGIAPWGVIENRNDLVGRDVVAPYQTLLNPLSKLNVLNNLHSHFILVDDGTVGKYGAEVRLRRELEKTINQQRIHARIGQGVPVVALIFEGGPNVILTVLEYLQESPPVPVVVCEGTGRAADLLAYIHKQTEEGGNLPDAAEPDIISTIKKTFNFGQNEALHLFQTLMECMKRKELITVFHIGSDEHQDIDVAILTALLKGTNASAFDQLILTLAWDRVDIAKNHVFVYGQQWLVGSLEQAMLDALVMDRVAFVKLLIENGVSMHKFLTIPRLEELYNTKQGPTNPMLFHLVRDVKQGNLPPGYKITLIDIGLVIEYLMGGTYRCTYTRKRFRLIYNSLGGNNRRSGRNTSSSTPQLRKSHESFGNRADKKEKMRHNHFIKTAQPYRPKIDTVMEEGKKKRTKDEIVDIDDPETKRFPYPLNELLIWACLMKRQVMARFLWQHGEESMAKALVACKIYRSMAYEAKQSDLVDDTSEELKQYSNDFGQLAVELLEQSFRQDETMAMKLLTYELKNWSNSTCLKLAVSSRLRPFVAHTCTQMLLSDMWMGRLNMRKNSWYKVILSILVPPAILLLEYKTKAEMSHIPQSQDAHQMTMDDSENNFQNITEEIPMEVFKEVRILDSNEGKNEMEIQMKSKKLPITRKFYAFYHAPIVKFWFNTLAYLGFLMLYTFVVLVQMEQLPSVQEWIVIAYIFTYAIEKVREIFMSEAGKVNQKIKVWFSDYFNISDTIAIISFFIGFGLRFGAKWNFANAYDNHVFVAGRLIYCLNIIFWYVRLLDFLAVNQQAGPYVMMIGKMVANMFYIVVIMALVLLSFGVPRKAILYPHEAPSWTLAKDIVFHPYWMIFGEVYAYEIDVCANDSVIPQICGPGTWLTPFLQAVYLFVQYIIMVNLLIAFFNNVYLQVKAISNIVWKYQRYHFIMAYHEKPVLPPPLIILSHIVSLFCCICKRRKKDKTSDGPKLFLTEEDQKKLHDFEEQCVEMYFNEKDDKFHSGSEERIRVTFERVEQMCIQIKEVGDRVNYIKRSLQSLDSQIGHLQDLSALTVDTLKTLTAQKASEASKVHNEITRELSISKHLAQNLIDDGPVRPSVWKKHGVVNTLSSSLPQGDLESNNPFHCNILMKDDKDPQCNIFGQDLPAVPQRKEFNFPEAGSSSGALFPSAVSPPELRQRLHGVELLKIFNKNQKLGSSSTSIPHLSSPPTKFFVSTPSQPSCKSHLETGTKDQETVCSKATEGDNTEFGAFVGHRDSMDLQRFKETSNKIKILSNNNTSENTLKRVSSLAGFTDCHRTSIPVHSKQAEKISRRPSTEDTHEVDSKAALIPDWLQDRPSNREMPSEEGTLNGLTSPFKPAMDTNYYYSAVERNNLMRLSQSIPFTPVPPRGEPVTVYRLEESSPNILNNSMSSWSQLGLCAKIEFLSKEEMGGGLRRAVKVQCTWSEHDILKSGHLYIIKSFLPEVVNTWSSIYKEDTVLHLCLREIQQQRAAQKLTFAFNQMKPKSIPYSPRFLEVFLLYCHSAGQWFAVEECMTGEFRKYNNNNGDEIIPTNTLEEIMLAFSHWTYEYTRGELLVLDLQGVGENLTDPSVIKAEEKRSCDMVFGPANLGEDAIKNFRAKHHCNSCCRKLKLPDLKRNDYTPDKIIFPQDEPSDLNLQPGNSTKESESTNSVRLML

Compound: CC(C)[C@H](NC(=O)[C@H](CCC(=O)O)NC(=O)[C@@H](NC(=O)[C@H](CCC(=O)O)NC(=O)[C@H](CCCNC(=N)N)NC(=O)[C@H](Cc1ccccc1)NC(=O)[C@H](Cc1c[nH]cn1)NC(=O)[C@H](CCCCN)NC(=O)[C@H](CCC(=O)O)NC(=O)[C@H](CCCNC(=N)N)NC(=O)[C@H](CCCNC(=N)N)NC(=O)[C@H](CCCNC(=N)N)NC(=O)[C@H](CCC(N)=O)NC(=O)[C@H](CCCNC(=N)N)NC(=O)[C@H](CCCNC(=N)N)NC(=O)[C@H](CCCCN)NC(=O)[C@H](CCCCN)NC(=O)[C@H](CCCNC(=N)N)NC(=O)CNC(=O)[C@H](Cc1ccc(O)cc1)NC(=O)CCCC[C@@H]1SC[C@@H]2NC(=O)N[C@@H]21)[C@@H](C)O)C(=O)O [AA353] (Biotin-YGRKKRRQRRREKHFRETEV-OH)
- pEC50 [1]: > 8.70

Compound: [Gd+3] [Gd^3+]
- survival of neurons [2]: permit survival of neurons destined to die from prolonged OGD

Compound: [Mg+2] [Mg^2+]
- concentration inhibiting TRPM7 [3]: 0.6 mM

Compound: YGRKKRRQRRRSTNSVRLML [Tat-9cTRPM7]
- Neuronal survival [4]: enhanced survival
